What was measured:
[1] = system: hydrochloric acid-induced cystitis; experiment: urinary frequency in rats with hydrochloric acid-induced cystitis; format: in vivo, rat
Text: Twenty Sprague-Dawley rats (body weight 220-250 g) were randomly divided into four equal groups: group 1, normal controls; group 2, a sham treatment (HCl-induced IC, with subsequent saline instillation); group 3, a sham treatment (HCl-induced IC, with subsequent acetic acid instillation); and group 4, stimulated (HCl-induced IC with oxytocin and acetic acid instillation). The IC animal model developed by Rivas et al. was used (Rivas D A, Chancellor M B, Shupp-Byme D, Shenot P J, McHugh K, McCue P. A molecular marker for the development of interstitial cystitis in a rat model: isoactin gene expression. J. Urol. 1997; 157: 1937-1940); IC was induced in groups 2-4 under general anaesthesia (using a combined subcutaneous injection with acepromazine 0.05 mg/kg, ketamine 50 mg/kg and xylazine 5 mg/kg). A sterile polyethylene catheter (outside diameter 1.27 mm; Becton Dickinson Company, Sparks, Md., USA) was inserted into the bladder through the urethra and all urine aspirated. […]
The micturition pattern was measured both before and 3 weeks after intravesical HCl instillation, using a Grass 79 Polygraph (Grass Instruments Co., Quincy, Mass., USA). Rats were placed into a metabolic cage and micturition recorded automatically for […] (17.00-09.00 hours); all rats were assessed at the same time of the day to minimise the effect of the circadian cycle on micturition frequency and volume. […]

[2] = system: magnesium deficiency-induced dermatosis; experiment: atopic dermatitis-like symptoms in hypomagnesaemic hairless rats; format: in vivo, rat
Experimental: Male hairless rats (Ico:OFA hr/hr) were obtained from Iffa Credo (Lyon, France) immediately after weaning and housed under conventional standardised conditions in polycarbonate cages with wood chip bedding in a room with 12:12 h light/dark cycle, 24±1° C. The rats were fed with a standard maintenance diet low in magnesium (Altromin, Lage, Germany, C10350; 0.012% Mg^2+/kg dry matter) and demonised water was supplied ad libitum. This diet rendered the animals hypomagnesaemic. Magnesium (mean±SD, mmol/l) in serum fell to 0.58±0.23 on day 4, 0.36±0.18 on day 10, and to the lowest value (0.24±0.11) on day 15 on the diet. The lowest concentration was maintained up to the termination of the experiments. Under these conditions, the onset of clinical signs was after 6-8 days on the diet. The first signs were pronounced reddening and swelling of both ear lobes in all animals. […] Simultaneously with the onset of erythema, the rats began to scratch intensively and bite themselves, causing erosions and excoriations. Head, trunk, paws and tail were uniformly and intensely reddened within 2 days after the onset of signs. This stage was followed by the development of small papules and irregularly shaped plaques 1-2 cm in diameter on the trunk. The skin lesions and the signs of pruritus were most pronounced after 10-11 days on the diet, and were then constant for approximately 4 days. This acute stage was then followed by a decrease in general erythema and, subsequently, by the remission of papules and plaques within approximately 5 days. However, complete clearance was not observed.
Drug, formulations and treatment regimens: For topical administration, the oxytocin was dissolved in ethanol/propylene glycol (1 mg/ml).
The treatment was performed either unilaterally with the active drug on the right ear and with the vehicle contralaterally or bilaterally on both ears with oxytocin and vehicle, respectively. Therapeutic treatment was started immediately after clinical signs had fully developed and was given twice daily for 3 consecutive days. Prophylactic application was started on day 3 on the diet (i.e. 3-5 days before the expected onset of signs) and was given once daily for 7 days until day 9. Active drug or vehicle was applied in volumes of 20 μl to both sides of the ears.
For assessment of the therapeutic efficacy of oxytocin the animals were examined clinically once daily during the treatment period and for a further 7 days (topical treatment). Prophylactic activity was determined by daily examinations performed during the treatment period and a further 9 days. A score index (scale 0-3) for ear lesions was applied: 0, no change; 1, slight edematous, erythematous swelling; 2, moderate edematous, erythematous swelling; 3, pronounced edematous, erythematous swelling. In all experiments, the skin lesions were evaluated clinically by a single investigator unaware of the treatment allocation.

Oxytocin
micturition frequency ([1]; group 4 (HCl-induced IC with oxytocin 1 mg/ml instillation) vs group 2+3, after 3 weeks, P=0.05): significantly less
urine volume per micturition ([1]; group 4 (oxytocin instillation) vs group 2+3): not significantly higher
sum of daily scores (ear lesions, scale 0-3) from day 3 to 10 ([2]; prophylactic topical, once daily day 3 to 9, vehicle-treated ears 9.2±0.7): 2.4±1.1
time after the last dose until which signs remained suppressed ([2]; therapeutic, bilateral application, signs reappeared 4 or 5 days after the last dose): 3 days
local erythematous swelling of the ears ([2]; therapeutic, bilateral application, within 1 day after the first dose): significantly inhibited
local erythematous swelling of the ear ([2]; therapeutic, epicutaneously on one ear, 1 mg/ml, within 1 day after the start of treatment): significantly reduced local erythematous swelling
systemic effect (distant erythematous lesions on the trunk and pruritus) ([2]; topical dose applied on the ears): no systemic effect

— patent publication US20060234919A1, “Use” (priority 2001, published 2006)
